Data on three substances can be found in patent publication US20090227601A1, “Bradykinin 1 Receptor Antagonists” (Amgen Inc., priority 2005, published 2009).

The target of one series is T1, hB2 receptor (Homo sapiens, UniProt P30411).
T1 construct: host or cells: CHO-K1
T1 sequence (P30411 1-391): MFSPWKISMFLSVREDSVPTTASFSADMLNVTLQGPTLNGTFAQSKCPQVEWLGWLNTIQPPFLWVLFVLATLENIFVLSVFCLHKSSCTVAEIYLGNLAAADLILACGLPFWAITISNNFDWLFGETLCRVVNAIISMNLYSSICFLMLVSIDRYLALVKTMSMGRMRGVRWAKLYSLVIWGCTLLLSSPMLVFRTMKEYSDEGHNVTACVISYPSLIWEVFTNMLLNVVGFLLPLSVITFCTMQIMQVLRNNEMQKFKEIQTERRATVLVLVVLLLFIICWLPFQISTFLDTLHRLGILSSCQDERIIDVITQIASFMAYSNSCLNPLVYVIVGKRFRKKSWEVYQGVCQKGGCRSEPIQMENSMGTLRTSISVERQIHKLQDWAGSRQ
Briefly: In vitro Assay of hB2 Receptor Function using Calcium Flux. The series is classed as cell-based. Conditions: recombinant CHO cells, antagonist IC50 against agonist at EC80. How it is done:
In vitro Assay of hB2 Receptor Function using Calcium Flux The intracellular calcium flux induced by hB2 receptor activation was analyzed using an hB2 recombinant cell line (CHO-K1) purchased from PerkinElmer (Catalog Number: RBHB2C000EA) on a fluorometric imaging plate reader (FLIPR). […] Culture medium was changed every other day. 24 h prior to the FLIPR assay, the hB2/CHO cells were washed once with PBS (Invitrogen) and 10 mL of Versene (1:5000, Invitrogen, Cat# 15040-066) was added to each flask. After 5 min incubation at 37° C., Versene was removed and cells were detached from the flask and resuspended in culture medium. Cells were counted and 25,000 cells/well were plated in 96-well black-sided clear bottom assay plates (Costar #3904). Cells were incubated in a 37° C. CO2 incubator overnight. The media was aspirated from the cells and replaced with 65 μL of dye-loading buffer. The loading buffer was prepared by diluting a stock solution of 0.5 mM Fluo-4 AM (Molecular Probes, dissolved in DMSO containing 10% [w/v] pluronic acid) to a concentration of 1 μM in Clear Dulbecco's Modified Eagle Medium (DMEM) containing 0.1% BSA, 20 mM HEPES, and 2.5 mM probenecid. The cells were dye-loaded for 1 h at RT. The excess dye was removed by washing the cells 2× with assay buffer. The assay buffer consists of Hank's Balanced Salt Solution (HBSS) containing 20 mM HEPES, 0.1% BSA, and 2.5 mM probenecid. After the wash cycles, a volume of 100 μL was left in each well, and the plate was ready to be assayed in the FLIPR System. […] The cell plate and the compound plates were loaded onto the FLIPR and during the assay, fluorescence readings are taken simultaneously from all 96 wells of the cell plate. Ten 1-second readings were taken to establish a stable baseline for each well, then 25 μL from the B1 antagonist plate was rapidly (50 μL/sec.) added. The fluorescence signal was measured in 1-second (1 min) followed by 6-second (2 min) intervals for a total of 3 min to determine if there is any agonist activity with the compounds.

The conditions of series [1]: cited from earlier work.

No end group written: not given here.

For orientation: IC50 means the concentration needed to halve the response being measured. For “N-((3R)-1-(1-methylethyl)-3-piperidinyl)-2-((2R)-1-((4-methylphenyl)sulfonyl)-3-oxo-1,2,3,4-tetrahydro-2-pyrazinyl)acetamide; and N-((3S)-1-(1-methylethyl)-3-piperidinyl)-2-((2R)-1-((4-methylphenyl)sulfonyl)-3-oxo-1,2,3,4-tetrahydro-2-pyrazinyl)acetamide [T-1-11]”, on hB2 receptor, the IC50 was found to be 530 nM.

Take “N-((4S)-1-cyclopropyl-3,3-dimethyl-4-piperidinyl)-2-((2R)-1-((4-methylphenyl)-sulfonyl)-3-oxo-1,2,3,4-tetrahydro-2-pyrazinyl)acetamide; and N-((4R)-1-cyclopropyl-3,3-dimethyl-4-piperidinyl)-2-((2R)-1-((4-methylphenyl)-sulfonyl)-3-oxo-1,2,3,4-tetrahydro-2-pyrazinyl)acetamide [T-1-45]”: the half-maximal inhibitory concentration (IC50) on hB2 receptor amounted to 1 nM.

As for RPPGFSPFR [BK, Bradykinin], the “half-life of BK in plasma” value in series [1] is given as “approximately 17 seconds”.
